Source: patent publication US8658794B2, “8-methyl-1-phenyl-imidazol[1,5-a]pyrazine compounds as Lck inhibitors and uses thereof” (Merck Sharp & Dohme B.V., priority 2010, dated 2014)
pIC50: −log10 of the molar value.

Molecular target: T1, N-terminal His6-tagged recombinant full-length human Lck (Homo sapiens, UniProt P06239)
T1 construct: N-terminal His6-tagged recombinant full-length human Lck; His6 (N); purchased Millipore
Assay: Lck IMAP assay
Type: biochemical
Conditions: ATP 6 μM (KM,ATP), enzyme pre-incubated with compounds for 60 minutes, values given as bins
From the text: Inhibition of kinase activity can be measured using the Immobilized Metal Assay for Phosphochemicals (IMAP) assay. IMAP is a homogeneous fluorescence polarization (FP) assay based on affinity capture of phosphorylated peptide substrates. IMAP uses fluorescein-labeled peptide substrates that, upon phosphorylation by a protein kinase, bind to so-called IMAP nanoparticles, which are derivatized with trivalent metal complexes. Binding causes a change in the rate of the molecular motion of the peptide, and results in an increase in the FP value observed for the fluorescein label attached to the substrate peptide (Gaudet et al. A homogeneous fluorescence polarization assay adaptable for a range of protein serine/threonine and tyrosine kinases. J. Biomol. Screen (2003) 8, 164-175).
Enzyme used was N-terminal His6-tagged recombinant full-length human Lck from Millipore. Phosphorylation substrate was a fluorescein-labeled peptide (5FAM-KVEKIGEGTYGVV—NH2) derived from p34cdc2 from Molecular Devices. Enzymes, substrate and ATP were diluted in Kinase Reaction buffer (10 mM Tris-HCl, 10 mM MgCl2, 0.01% Tween-20, 0.05% NaN3 pH 7.2, 1 mM DTT (dithiotreitol). The final volume at the kinase reaction step of the assay in the 384-well plate was 20 μl. Final amount of enzyme in the reaction was 0.1 U/ml. Enzyme was pre-incubated with compounds diluted in 1% DMSO (dimethylsulfoxide) for 60 minutes at room temperature in the dark. Subsequently, peptide substrate to a final concentration of 100 nM, and ATP to a final concentration of 6 μM were added and the mix was incubated for 120 minutes at room temperature in the dark. IMAP progressive binding buffer (75% 1× buffer A, 25% 1× buffer B with 1:600 Progressive Binding Reagent; Molecular Devices) was added, followed by an incubation step of 60 minutes at room temperature in the dark. Finally, the FP signal was read on an Envision Multilabel reader (Perkin Elmer).
All biochemical assays were run at KM,ATP of the enzyme using non-saturated conditions, meaning that during the incubation time it was assured that the signal increase was linear with time. For all biochemical assays a reference standard was used on each plate.
Ten point serial dilutions using a √10 dilution factor were used for dose response testing of compounds. Starting concentration was 10^-6M for Lck IMAP assays. Dose-response curves were run as two experiments on duplicate plates (N=1; n=2). All data was normalized to percentage effect based on maximum (Max) and minimum (Min) control values. On every 384 assay plate 16 wells were used as minimum wells (wells with ATP, 0% effect) and 16 wells were used as maximum wells (wells without ATP, 100% effect). 16 wells were used for measuring the background signal, obtained from a kinase reaction containing all constituents except the labeled peptide substrate. Percentage effect was plotted against log dilution concentration of compound to obtain sigmoid dose response curves. pIC50 values were calculated using ActivityBase.

T1 sequence (P06239 whole entry): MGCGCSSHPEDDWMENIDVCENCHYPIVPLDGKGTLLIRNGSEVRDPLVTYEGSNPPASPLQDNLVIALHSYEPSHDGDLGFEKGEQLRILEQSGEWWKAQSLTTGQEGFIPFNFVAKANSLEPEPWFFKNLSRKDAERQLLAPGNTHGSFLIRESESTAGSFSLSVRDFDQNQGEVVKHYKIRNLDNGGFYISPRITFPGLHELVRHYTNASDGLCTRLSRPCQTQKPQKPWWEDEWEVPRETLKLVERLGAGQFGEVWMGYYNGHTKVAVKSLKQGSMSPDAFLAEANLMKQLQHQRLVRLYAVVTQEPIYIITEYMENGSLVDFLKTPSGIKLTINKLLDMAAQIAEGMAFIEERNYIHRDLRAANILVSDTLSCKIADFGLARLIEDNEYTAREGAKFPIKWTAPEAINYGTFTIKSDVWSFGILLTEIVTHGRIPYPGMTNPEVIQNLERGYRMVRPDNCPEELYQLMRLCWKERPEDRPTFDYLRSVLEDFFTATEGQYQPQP

Work on CCC[C@H](C)OC(=O)Nc1ccc(-c2nc([C@H]3CC[C@@H](N4CCN(C)CC4)CC3)n3ccnc(C)c23)cc1OC [Example 33f, (S)-pentan-2-yl 2-methoxy-4-(8-methyl-3-((cis)-4-(4-methylpiperazin-1-yl)cyclohexyl)imidazo[1,5-a]pyrazin-1-yl)phenylcarbamate] yielded a pIC50 of at least 8.00.

COc1cc(-c2nc(N3CCN(C(C)=O)CC3)n3ccnc(C)c23)ccc1NC(=O)c1cc2c(OC)cccc2n1C [Example 33g, N-(4-(3-(4-acetylpiperazin-1-yl)-8-methylimidazo[1,5-a]pyrazin-1-yl)-2-methoxyphenyl)-4-methoxy-1-methyl-1H-indole-2-carboxamide] gave a pIC50 of 7.00 to 8.00.

Work on COc1cc(-c2nc(N3CCN(C4CCOCC4)CC3)n3ccnc(C)c23)ccc1NC(=O)c1cc2c(OC)cccc2n1C [Example 34, 4-Methoxy-N-(2-methoxy-4-(8-methyl-3-(4-(tetrahydro-2H-pyran-4-yl)piperazin-1-yl)imidazo[1,5-a]pyrazin-1-yl)phenyl)-1-methyl-1H-indole-2-carboxamide] yielded a pIC50 of at least 8.00.

In the case of COc1cc(-c2nc([C@@H]3CCN(C4CCOCC4)C3)n3ccnc(C)c23)ccc1NC(=O)c1cc2c(OC)cccc2n1C [Example 35, (R)-4-methoxy-N-(2-methoxy-4-(8-methyl-3-(1-(tetrahydro-2H-pyran-4-yl)pyrrolidin-3-yl)imidazo[1,5-a]pyrazin-1-yl)phenyl)-1-methyl-1H-indole-2-carboxamide], the pIC50 was 7.00 to 8.00.

In the case of COc1cc(-c2nc([C@H]3CCN(C4CCOCC4)C3)n3ccnc(C)c23)ccc1NC(=O)c1cc2c(OC)cccc2n1C [Example 36, (S)-4-Methoxy-N-(2-methoxy-4-(8-methyl-3-(1-(tetrahydro-2H-pyran-4-yl)pyrrolidin-3-yl)imidazo[1,5-a]pyrazin-1-yl)phenyl)-1-methyl-1H-indole-2-carboxamide], the pIC50 was 7.00 to 8.00.

Compound COc1cc(-c2nc(N3CCn4c(nnc4C(F)(F)F)C3)n3ccnc(C)c23)ccc1NC(=O)c1cc2c(OC)cccc2n1C [Example 37, 4-Methoxy-N-(2-methoxy-4-(8-methyl-3-(3-(trifluoromethyl)-5,6-dihydro-[1,2,4]triazolo[4,3-a]pyrazin-7(8H)-yl)imidazo[1,5-a]pyrazin-1-yl)phenyl)-1-methyl-1H-indole-2-carboxamide] has a pIC50 of 7.00 to 8.00.

For COc1cc(-c2nc(C3CCN(C)C(=O)C3)n3ccnc(C)c23)ccc1NC(=O)c1cc2c(OC)cccc2n1C (stereo not shown) [Example 38, 4-Methoxy-N-(2-methoxy-4-(8-methyl-3-(1-methyl-2-oxopiperidin-4-yl)imidazo[1,5-a]pyrazin-1-yl)phenyl)-1-methyl-1H-indole-2-carboxamide], the pIC50 was at least 8.00.

Compound COc1cc(-c2nc([C@H]3CC[C@H](N)CC3)n3ccnc(C)c23)ccc1NC(=O)c1cc2c(OC)cccc2n1C [Example 39, N-(4-(3-((trans)-4-aminocyclohexyl)-8-methylimidazo[1,5-a]pyrazin-1-yl)-2-methoxyphenyl)-4-methoxy-1-methyl-1H-indole-2-carboxamide] has a pIC50 of at least 8.00.

COc1cc(-c2nc([C@H]3CC[C@H](NCC(F)F)CC3)n3ccnc(C)c23)ccc1NC(=O)c1cc2c(OC)cccc2n1C [Example 40, N-(4-(3-((trans)-4-(2,2-Difluoroethylamino)cyclohexyl)-8-methylimidazo[1,5-a]pyrazin-1-yl)-2-methoxyphenyl)-4-methoxy-1-methyl-1H-indole-2-carboxamide] showed a pIC50 of at least 8.00.

COc1cc(-c2nc([C@H]3CC[C@H](N4CC(F)(F)C4)CC3)n3ccnc(C)c23)ccc1N(C)C(=O)OC(C)C [Example 41, Isopropyl 4-(3-((trans)-4-(3,3-difluoroazetidin-1-yl)cyclohexyl)-8-methylimidazo[1,5-a]pyrazin-1-yl)-2-methoxyphenyl(methyl)carbamate] was tested, and the pIC50 was 6.00 to 7.00.

With COc1ccc2[nH]c(C(=O)Nc3ccc(-c4nc(C5CCOCC5)n5ccnc(C)c45)cc3OC)cc2n1 [Example 42, 5-methoxy-N-(2-methoxy-4-(8-methyl-3-(tetrahydro-2H-pyran-4-yl)imidazo[1,5-a]pyrazin-1-yl)phenyl)-1H-pyrrolo[3,2-b]pyridine-2-carboxamide] the pIC50 was 7.00 to 8.00.

Compound COc1cc(-c2nc(C3CCN(C)CC3)n3ccnc(C)c23)ccc1NC(=O)c1cc2ccccc2n1C [Example 43, N-(2-methoxy-4-(8-methyl-3-(1-methylpiperidin-4-yl)imidazo[1,5-a]pyrazin-1-yl)phenyl)-1-methyl-1H-indole-2-carboxamide] has a pIC50 of at least 8.00.

Compound COc1cc(-c2nc(C3CCOCC3)n3ccnc(C)c23)ccc1NC(=O)O[C@@H](C)CCO [Example 44, (S)-4-hydroxybutan-2-yl 2-methoxy-4-(8-methyl-3-(tetrahydro-2H-pyran-4-yl)imidazo[1,5-a]pyrazin-1-yl)phenylcarbamate] has a pIC50 of 7.00 to 8.00.

With COc1cc(-c2nc(C3CCN(C)CC3)n3ccnc(C)c23)ccc1NC(=O)c1cc2c(F)cccc2n1C [Example 45, 4-fluoro-N-(2-methoxy-4-(8-methyl-3-(1-methylpiperidin-4-yl)imidazo[1,5-a]pyrazin-1-yl)phenyl)-1-methyl-1H-indole-2-carboxamide] the pIC50 was 7.00 to 8.00.

For COc1cc(-c2nc(C3CCOCC3)n3ccnc(C)c23)c(F)cc1NC(=O)c1cc2c(OC)cccc2n1C [Example 46, N-(5-fluoro-2-methoxy-4-(8-methyl-3-(tetrahydro-2H-pyran-4-yl)imidazo[1,5-a]pyrazin-1-yl)phenyl)-4-methoxy-1-methyl-1H-indole-2-carboxamide], the pIC50 was at least 8.00.

For COc1cc(-c2nc(C3CCOCC3)n3ccnc(C)c23)c(F)cc1NC(=O)OC(C)CCCO (stereo not shown) [Example 47, 5-Hydroxypentan-2-yl 5-fluoro-2-methoxy-4-(8-methyl-3-(tetrahydro-2h-pyran-4-yl)imidazo[1,5-a]pyrazin-1-yl)phenylcarbamate], the pIC50 was 6.00 to 7.00.

In the case of CC[C@H](C)OC(=O)Nc1ccc(-c2nc([C@H]3CC[C@H](N4CCN(C)CC4)CC3)n3ccnc(C)c23)cc1OC [Example 48, (S)-sec-Butyl 2-methoxy-4-(8-methyl-3-((trans)-4-(4-methylpiperazin-1-yl)cyclohexyl)imidazo[1,5-a]pyrazin-1-yl)phenylcarbamate], the pIC50 was at least 8.00.

Work on COc1cc(-c2nc(C3CCN(C4CCN(C(C)=O)CC4)CC3)n3ccnc(C)c23)ccc1NC(=O)c1cc2c(OC)cccc2n1C [Example 49, N-(4-(3-(1′-acetyl-1,4′-bipiperidin-4-yl)-8-methylimidazo[1,5-a]pyrazin-1-yl)-2-methoxyphenyl)-4-methoxy-1-methyl-1H-indole-2-carboxamide] yielded a pIC50 of at least 8.00.

For CCC[C@H](C)OC(=O)Nc1ccc(-c2nc([C@H]3CCN(C(=O)COC)C3)n3ccnc(C)c23)cc1OC [Example 50, (S)-pentan-2-yl 2-methoxy-4-(3-((S)-1-(2-methoxyacetyl)pyrrolidin-3-yl)-8-methylimidazo[1,5-a]pyrazin-1-yl)phenylcarbamate], the pIC50 was at least 8.00.

COc1cc(-c2nc([C@H]3CC[C@H](OC(=O)NC4CCCC4)CC3)n3ccnc(C)c23)ccc1NC(=O)c1cc2c(OC)cccc2n1C [Example 51, (trans)-4-(1-(3-Methoxy-4-(4-methoxy-1-methyl-1H-indole-2-carboxamido)phenyl)-8-methylimidazo[1,5-a]pyrazin-3-yl)cyclohexyl cyclopentylcarbamate] showed a pIC50 of 7.00 to 8.00.

With COc1cc(-c2nc([C@@H]3CCN(CC(=O)N(C)C)C3)n3ccnc(C)c23)ccc1NC(=O)c1cc2c(OC)cccc2n1C [Example 52, (R)—N-(4-(3-(1-(2-(dimethylamino)-2-oxoethyl)pyrrolidin-3-yl)-8-methylimidazo[1,5-a]pyrazin-1-yl)-2-methoxyphenyl)-4-methoxy-1-methyl-1H-indole-2-carboxamide] the pIC50 was 7.00 to 8.00.

In the case of COc1cc(-c2nc([C@@H]3CCN(C(=O)CO)C3)n3ccnc(C)c23)ccc1NC(=O)c1cc2c(OC)cccc2n1C [Example 53, (R)—N-(4-(3-(1-(2-hydroxyacetyl)pyrrolidin-3-yl)-8-methylimidazo[1,5-a]pyrazin-1-yl)-2-methoxyphenyl)-4-methoxy-1-methyl-1H-indole-2-carboxamide], the pIC50 was at least 8.00.
